A short description of series [1]: Metabolic stability in pooled male mouse liver microsomes. The protocol: A master solution was prepared according to the following table.
40 μL of 10 mM NADPH solution was added to each well. The final concentrations of NADPH was 1 mM. The mixture was pre-warmed at 37° C. for 5 minutes. The negative control samples were prepared by replacing NADPH solutions with 40 μL of ultra-pure H2O. The negative control was used to exclude the misleading factor that resulted from instability of chemical itself. Samples with NADPH were prepared in duplicate. Negative controls were prepared in singlet.
The reaction was started with the addition of 4 μL of 200 μM control compound or test compound solutions. […] Samples were centrifuged at 3, 220 g for 40 minutes. Aliquot of 90 μL of the supernatant was mixed with 90 μL of ultra-pure H2O and then used for LC-MS/MS analysis.
For metabolite standard samples: 1 μL of 400 μM working solution was added to 89 μL master solution following by adding 400 μL of cold acetonitrile with internal standard (IS) (100 nM alprazolam, 200 nM Imipramine, 200 nM labetalol and 2 μM ketoprofen). Then 10 μL of 10 mM NADPH solution or ultra-pure H2O was added to the mixture. Samples were centrifuged at 3,220 g for 40 minutes to precipitate protein. Aliquots of 90 μL supernatant diluted by 90 μL of water was used for LC-MS/MS analysis.

Another series concerns 1-MNA. Put plainly: Plasma 1-MNA in mice after dosing with 11 (PK/PD). Format: in vivo, Female C57B16/N mice. The source says:
Doses were freshly prepared on the day of dosing. Vehicle compositions of each dose are listed below. […] Adjust pH with 1 N hydrochloric acid to obtain a clear solution or (b) 0.2% Tween 80/20% PEG-300 in water. Adjust pH with 1 N hydrochloric acid to obtain a clear solution
Then the samples were vortexed for 30 s.

The target in the next series is T1, recombinant human NNMT (Homo sapiens, UniProt P40261).
T1 sequence (P40261 1-264): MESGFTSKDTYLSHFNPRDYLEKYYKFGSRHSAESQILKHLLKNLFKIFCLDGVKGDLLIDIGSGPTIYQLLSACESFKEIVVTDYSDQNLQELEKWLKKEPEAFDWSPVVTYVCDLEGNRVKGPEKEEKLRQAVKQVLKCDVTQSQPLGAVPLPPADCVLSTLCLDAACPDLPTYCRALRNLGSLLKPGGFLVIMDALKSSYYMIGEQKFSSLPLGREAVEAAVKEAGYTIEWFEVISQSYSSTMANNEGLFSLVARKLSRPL
Description: in vitro NNMT enzyme inhibition assay (Promega MTase-Glo Methyltransferase Assay). In kind it is biochemical. The note with it: 40 nM recombinant human NNMT, 8 μM nicotinamide, 6.7 μM SAM, 20 minutes. The protocol: NNMT biochemical activity for was evaluated using the Promega Mtase-Glo Methyltransferase Assay kit. Assays were performed in a white, flat-bottomed 96 well plate. […] Reactions were performed for 20 minutes at room temperature. MTase-Glo reagent and MTase-Glo detection solution were added according to manufacturer's instructions and luminescence signal measured with a SpectraMax i3 plate reader and data analyzed with GraphPad Prism version 9. Scheme 16 depicts a visual summary of the Promega MTase-Glo Methyltransferase assay used to assess biochemical activity of novel inhibitors.

Series [2] deals with CYP1A2, CYP2A6, CYP2B6, CYP2C8, CYP2C9, CYP2C19, CYP2D6, CYP2E and CYP3A4. Description: CYP inhibition studies in human liver microsomes. Format: in vitro ADME. The note with it: up to 100 μM. The protocol:
1. 1 μL of multiple concentrations of test compound or positive control compound (CYP1A2: furafylline, CYP2A6: tranylcypromine, CYP2B6: ketoconazole, CYP2C8: quercetin, CYP2C9: sulfaphenazole, CYP2C19: N-3-benzylnirvanol, CYP2D6: quinidine, CYP2E1: disulfiram and CYP3A4: ketoconazole) was transferred to the “Compound Plate”. The concentrations of test compounds were 0, 0.6, 2, 6, 20, 60, 2000, 6000 and 20000 μM. The concentrations of positive control compounds were 0, 0.2, 1, 2, 10, 50, 200, 2000 and 10000 μM.
2. The master solution was prepared according to the Table 9A and 9B, and pre-warmed in the water bath at 37° C. for 5 minutes. 179 μL of master solutions were transferred to “Incubation Plate”. In the mixed system, the final concentrations of test compound were 0, 0.003, 0.01, 0.03, 0.1, 0.3, 10, 30 & 100 μM, and the final concentrations of positive control compound were 0, 0.001, 0.005, 0.01, 0.05, 0.25, 1, 10 & 50 μM. All experiments were performed in duplicate.
3. The reaction was started with the addition of 20 μL of 10 mM NADPH solution at the final concentration of 1 mM and carried out at 37° C.
4. […]
5. […] The formation of metabolites was analyzed by using LC-MS/MS. […]
6. […] The formation of metabolites were analyzed by using LC-MS/MS. […] The IC50 shift was calculated for evaluating the mechanism of the inhibition.
On the technique in general: Liver microsomes are vesicles of endoplasmic reticulum, rich in cytochrome P450 enzymes.

[3] abbreviates: male, mouse, pooled liver microsomes.
[4] abbreviates: 10 mg/kg PO of 11, formulation a.

“And” between values parts separate entries of the source, which are not always exact repeats. Equal entries are not always repeated.

With `C[C@@H]1Cc2cc(C(N)=O)cnc2N1` [Compound 11, (2R)-2-methyl-2,3-dihydro-1H-pyrrolo[2,3-b]pyridine-5-carboxamide], in series [1] (Mouse liver microsomes), the “Predicted hepatic CL” value is on record as less than 18.76 mL/min/kg and the “Remaining (%) at 60 minutes” value stood at 93.24%. Moreover, in series [1] (setting [3]), the CLint scaled – broadly, a measure of how fast metabolising enzymes remove a compound, apart from limits set by blood flow – at 2 μM is less than 23.7 mL/min/kg; the half-life – broadly, how long it takes for the measured level to halve – at 2 μM is greater than 4.26 h; the microsomal CLint – broadly, a measure of how fast metabolising enzymes remove a compound, apart from limits set by blood flow – at 2 μM was less than 5.42 µL/min/mg. Further, the “AUClast of 1-MNA” value in the series on 1-MNA (1 mg/kg IV of 11) is 1289 ng·h/mL. In the series on 1-MNA (setting [4]), the “AUClast of 1-MNA” value was 943 ng·h/mL, the “Cmax of 1-MNA” value worked out at 54.9 ng/mL and the “Tmax of 1-MNA” value was 24.0 h. Moreover, in the series on 1-MNA (50 mg/kg of 11, formulation a), the “AUClast of 1-MNA” value was found to be 653 ng·h/mL, the “Cmax of 1-MNA” value is on record as 54.8 ng/mL and the “Tmax of 1-MNA” value is on record as 24.0 h. In addition, in the series on 1-MNA (50 mg/kg of 11, formulation b), the “AUClast of 1-MNA” value turned out to be 667 ng·h/mL, the “Cmax of 1-MNA” value was 70.1 ng/mL and the “Tmax of 1-MNA” value is 8.17 h. In addition, at recombinant human NNMT, the IC50 (in general, the midpoint of a concentration-inhibition curve) was 0.035 µM and 0.035 to 0.042 µM. Besides, the “Inhibition of CYP isoforms” value in series [2] was “did not inhibit”.
